Some test systems named below: A549; NCI/ADR-RES; SR; T47D; HT-29; SNB-19; CAKI-1; U-251; OVCAR-4; HCT-15; EKVX; LOX IMVI; Hs-578T; OVCAR-5; TK-10; NCI-H522; K562; MOLT-4; UACC-257.
Experiment in all cases: growth of human tumour cells (NCI), 48 h

Molecules are shown by their SMILES.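 Where inhibition never reached the appropriate level, the endpoint shown equals the highest concentration tested. Otherwise, values were interpolated linearly from a five-concentration, 48-hour dose response in 96-well plates. Abbreviation: GI50, concentration required for 50% inhibition of growth.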 Activity calls are given as the source filed them. Cut-off read from the data, not from the text of the source: active = GI50 up to about 1.1 µM and inactive = higher.

Regarding `Cn1c2ccccc2c(=NNc2ccc(S(N)(=O)=O)cc2)c2ccccc21`, the GI50 in the test on A549 was 11.7 µM (inactive); in the test with NCI/ADR-RES it was 14.1 µM (inactive); with SR, 8.81 µM (inactive); with T47D, 5.45 µM (inactive); with HT-29 it was 17.6 µM (inactive); in the test with SNB-19 it was 27.6 µM (inactive). Moreover, the GI50 with CAKI-1 is 15.7 µM (inactive); in the test with U-251, 19 µM (inactive); in the test on OVCAR-4 it was 14.3 µM (inactive); with HCT-15 it was 16.2 µM; with EKVX, 12 µM (inactive); in the test with LOX IMVI, 9.29 µM (inactive). The GI50 in the test on Hs-578T is 32.7 µM (inactive); with OVCAR-5 it was 24.4 µM (inactive); in the test with TK-10 it was 15 µM (inactive); in the test on NCI-H522, 11.2 µM (inactive); with K562, 2.49 µM (inactive); in the test with MOLT-4, 3.95 µM (inactive). Moreover, the GI50 in the test on UACC-257 is 17.1 µM (inactive).
As to `COc1ccc(-c2cc(-c3ccc(Nc4ccnc5cc(Cl)ccc45)cc3)[nH]c(=O)c2C#N)cc1`, the GI50 was > 100 µM (inactive) in the test with A549; > 100 µM (inactive) with NCI/ADR-RES; > 100 µM (inactive) in the test on SR; > 100 µM (inactive) with T47D; 77.4 µM (inactive) in the test with SNB-19; > 100 µM (inactive) in the test with CAKI-1. The GI50 is > 100 µM (inactive) with U-251; > 100 µM (inactive) in the test on OVCAR-4; more than 100 µM with HCT-15; > 100 µM (inactive) in the test with EKVX; > 100 µM (inactive) with LOX IMVI; > 100 µM (inactive) in the test on Hs-578T. Also, the GI50 with OVCAR-5 is > 100 µM (inactive); in the test on TK-10 it was 72.4 µM (inactive); in the test with NCI-H522, > 100 µM (inactive); with K562 it was > 100 µM (inactive); in the test on MOLT-4 it was > 100 µM (inactive).
For `Nc1nc2c(ncn2Cc2ccccc2CO)c(=O)[nH]1`, the GI50 in the test on A549, in the test on NCI/ADR-RES, in the test on SR, with T47D, with HT-29 and in the test on SNB-19 was > 100 µM (inactive) throughout. The GI50 in the test with CAKI-1 is > 100 µM (inactive); with U-251, > 100 µM (inactive); with OVCAR-4, > 100 µM (inactive); in the test on HCT-15 it was more than 100 µM; in the test with EKVX, > 100 µM (inactive); in the test on LOX IMVI, > 100 µM (inactive). For the same compound, the GI50 in the test on Hs-578T, with OVCAR-5, in the test on TK-10, with NCI-H522, in the test with K562 and in the test on MOLT-4 was > 100 µM (inactive) each time. The GI50 with UACC-257 was > 100 µM (inactive).
For the compound `COc1ccc(Cn2nc(OCc3ccccn3)c3cc([N+](=O)[O-])ccc32)cc1`, the GI50 was > 100 µM (inactive) with A549; > 100 µM (inactive) in the test on NCI/ADR-RES; > 100 µM (inactive) with SR; > 100 µM (inactive) in the test with T47D; > 100 µM (inactive) in the test on HT-29; 85.9 µM (inactive) with SNB-19. Moreover, the GI50 was > 100 µM (inactive) in the test with CAKI-1; more than 100 µM in the test on HCT-15; > 100 µM (inactive) with LOX IMVI; > 100 µM (inactive) with Hs-578T; > 100 µM (inactive) with OVCAR-5; > 100 µM (inactive) in the test with TK-10. Moreover, the GI50 with NCI-H522, in the test with K562, in the test on MOLT-4 and in the test on UACC-257 was > 100 µM (inactive) in each case.
With `COc1ccc(C2c3cc4c(cc3OC(N3CCOCC3)C2C)OCO4)cc1` (stereo not drawn), the GI50 with A549 was 23.2 µM (inactive); in the test with NCI/ADR-RES, 23.2 µM (inactive); in the test with SR, 15.1 µM (inactive); in the test on T47D, 7.96 µM (inactive); in the test on HT-29, 25.8 µM (inactive); in the test with SNB-19 it was 27.9 µM (inactive). Also, the GI50 in the test on CAKI-1 is 19.3 µM (inactive); in the test on U-251, 18 µM (inactive); in the test on OVCAR-4 it was 37.8 µM (inactive); with HCT-15 it was 24.5 µM; with EKVX it was 23.9 µM (inactive); with LOX IMVI it was 24.1 µM (inactive). The GI50 in the test with Hs-578T is 15.3 µM (inactive); in the test with OVCAR-5, 34.8 µM (inactive); in the test with TK-10, 29.1 µM (inactive); in the test with NCI-H522 it was 30 µM (inactive); in the test on K562, 12.8 µM (inactive); in the test with MOLT-4, 12 µM (inactive). The GI50 in the test with UACC-257 was 21.9 µM (inactive).
Take `CC(=O)c1ccc2c(c1)CC1(C2)Cc2cc3c(cc2C1)C(=O)CC3` (stereo not drawn): the GI50 with A549 is 0.792 µM (active); in the test with NCI/ADR-RES it was 1.57 µM (inactive); in the test on SR, 0.322 µM (active); in the test with T47D, 3.33 µM (inactive); in the test with HT-29, 1.07 µM (active); in the test on SNB-19, 1.67 µM (inactive). The GI50 in the test on CAKI-1 is 2.03 µM (inactive); with U-251 it was 1.8 µM (inactive); with OVCAR-4 it was 2.55 µM (inactive); with HCT-15 it was 1.08 µM; in the test on EKVX, 6 µM (inactive); with LOX IMVI, 6.37 µM (inactive). Also, the GI50 was 5.73 µM (inactive) with Hs-578T; 6.75 µM (inactive) with OVCAR-5; 9.35 µM (inactive) with TK-10; 1.93 µM (inactive) in the test on NCI-H522; 0.521 µM (active) in the test with K562; 11.4 µM (inactive) with UACC-257.
As to `O=C(O)C(F)(F)C(F)(F)C(F)(F)C(F)(F)C(=O)O`, the GI50 in the test with A549, in the test with NCI/ADR-RES, in the test on SR, in the test on T47D, with HT-29 and with SNB-19 was > 100 µM (inactive) throughout. Moreover, the GI50 in the test on CAKI-1 was > 100 µM (inactive); in the test on U-251, > 100 µM (inactive); in the test with OVCAR-4, > 100 µM (inactive); in the test on HCT-15, more than 100 µM; in the test on EKVX it was > 100 µM (inactive); in the test with LOX IMVI, > 100 µM (inactive). Besides, the GI50 in the test on Hs-578T, in the test with OVCAR-5, with TK-10, in the test on NCI-H522, in the test on K562 and with UACC-257 was > 100 µM (inactive) in each case.
With `CCOC(=O)[C@@]1(C(C)=O)CC(C)=C(C)C[S@@+]1[O-]`, the GI50 in the test with A549, in the test on NCI/ADR-RES, in the test with SR, in the test with T47D, with SNB-19 and with CAKI-1 was > 100 µM (inactive) throughout. For the same compound, the GI50 with U-251 is > 100 µM (inactive); with OVCAR-4, > 100 µM (inactive); with HCT-15, more than 100 µM; in the test on EKVX it was > 100 µM (inactive); in the test on LOX IMVI, > 100 µM (inactive); in the test with Hs-578T, > 100 µM (inactive). Besides, the GI50 in the test with OVCAR-5, with TK-10, with NCI-H522, in the test on K562, with MOLT-4 and in the test on UACC-257 was > 100 µM (inactive) in each case.
On to `CC[C@]1(Cc2ccc(OC)c(OC)c2)C=[N+]([O-])O[C@H](OC2CCCC2(c2ccccc2)c2ccccc2)[C@@H]1OC(=O)c1ccccc1` (stereo partly drawn), for which the GI50 in the test with A549 was 5.92 µM (inactive); in the test with NCI/ADR-RES, 4.73 µM (inactive); in the test with SR it was 3.1 µM (inactive); in the test on T47D it was 2.73 µM (inactive); in the test with HT-29, 3.57 µM (inactive); in the test on SNB-19, > 29.2 µM (inactive). In addition, the GI50 in the test with CAKI-1 was > 100 µM (inactive); in the test with U-251 it was 42.1 µM (inactive); with OVCAR-4, 7.38 µM (inactive); in the test on HCT-15 it was 11.7 µM; with EKVX it was 3.86 µM (inactive); in the test with LOX IMVI, 3.6 µM (inactive). For the same compound, the GI50 in the test on Hs-578T is > 100 µM (inactive); in the test with OVCAR-5 it was 22.3 µM (inactive); with NCI-H522 it was 3.87 µM (inactive); in the test with K562 it was 3.94 µM (inactive); in the test with MOLT-4 it was 2.63 µM (inactive); in the test on UACC-257, 14 µM (inactive).
On to `CC(C)(C)OC(=O)NCC(=O)NC1CC=CCC1NC(=O)CNC(=O)OC(C)(C)C` (stereo not drawn), for which the GI50 with A549, in the test with NCI/ADR-RES, with SR, in the test with T47D, with HT-29 and in the test with SNB-19 was > 100 µM (inactive) each time. Besides, the GI50 in the test with CAKI-1 is > 100 µM (inactive); in the test on U-251, > 100 µM (inactive); in the test with OVCAR-4, > 100 µM (inactive); in the test on HCT-15, more than 100 µM; in the test with LOX IMVI it was > 100 µM (inactive); in the test with Hs-578T it was > 100 µM (inactive). For the same compound, the GI50 in the test with OVCAR-5, in the test with TK-10, in the test with NCI-H522, with K562, in the test on MOLT-4 and in the test on UACC-257 was > 100 µM (inactive) each time.
With `O=C1NC(N2CCCCC2)=N/C1=C\c1ccco1`, the GI50 with A549 was > 100 µM (inactive); with NCI/ADR-RES, > 100 µM (inactive); with SR, > 100 µM (inactive); in the test on T47D, > 100 µM (inactive); in the test on HT-29, 30.3 µM (inactive); in the test on SNB-19, > 100 µM (inactive). Besides, the GI50 in the test on CAKI-1 was > 100 µM (inactive); in the test with U-251, > 100 µM (inactive); in the test with OVCAR-4, > 100 µM (inactive); with HCT-15, more than 100 µM; in the test on EKVX, 78.2 µM (inactive); with LOX IMVI it was > 100 µM (inactive). In addition, the GI50 in the test with Hs-578T, in the test with OVCAR-5, in the test with TK-10, in the test on NCI-H522, with MOLT-4 and in the test with UACC-257 was > 100 µM (inactive) throughout.

Source of the values: ChEMBL document CHEMBL1201862, “PubChem BioAssay data set” (2004).
